The text below walks through data of patent US8778953B2, “Inhibitors of P38 map kinase” (Chroma Therapeutics Ltd., priority 2008, dated 2014).

One data set concerns the target T1, p38 MAP Kinase a (Homo sapiens, UniProt Q16539).
T1 construct: purchased Upstate (Dundee UK)
As to the kind of experiment: p38 MAP Kinase activity, radiometric filter-binding assay (Upstate). Format: biochemical. The settings on record: IC50 range; read-out: Inhibitor activity versus p38 MAPKa. As for the experimental part: The ability of compounds to inhibit p38 MAP a Kinase activity was measured in an assay performed by Upstate (Dundee UK). In a final reaction volume of 25 μL, p38 MAP Kinase a (5-10 mU) is incubated with 25 mM Tris pH 7.5, 0.002 mMEGTA, 0.33 mg/mL myelin basic protein, 10 mM MgAcetate and [g-33p-ATP] (specific activity approx. 500 cpm/pmol, concentration as required). The reaction is initiated by the addition of the MgATP mix. After incubation for 40 minutes at room temperature, the reaction is stopped by the addition of 5 μL of a 3% phosphoric acid solution. 10 μL of the reaction is then spotted onto a P30 filtermat and washed three times for 5 minutes in 75 mM phosphoric acid and once in methanol prior to drying and scintillation counting.
Duplicate data points are generated from a 1/3 log dilution series of a stock solution in DMSO. Nine dilutions steps are made from a top concentration of 10 μM and a ‘no compound’ blank is included. The standard radiometric filter-binding assay is performed at an ATP concentration at, or close to, the Km. Data from scintillation counts are collected and subjected to free-fit analysis by Prism software. From the curve generated, the concentration giving 50% inhibition is determined and reported.

The next data set relates to THP-1 TNFα release. As to the kind of experiment: LPS-stimulation of THP-1 cells, TNF-α release (ELISA). It counts as cell-based. As to conditions: Homo sapiens; LPS-stimulated THP-1 cells, IC50 range; read-out: Inhibitor activity versus THP-1 TNFα release. As for the experimental part:
THP-1 cells were plated in 100 μl at a density of 4×10^4 cells/well in V-bottomed 96 well tissue culture treated plates and incubated at 37° C. in 5% CO2 for 16 hours. 2 hours after the addition of the inhibitor in 100 μl of tissue culture media, the cells were stimulated with LPS (E. coli strain 005:B5, Sigma) at a final concentration of 1 μg/ml and incubated at 37° C. in 5% CO2 for 6 hours. TNF-α levels were measured from cell-free supernatants by sandwich ELISA (R&D Systems #QTA00B).
On the technique in general: An ELISA detects its analyte on a solid surface through an enzyme-linked reagent.

Data set [1] deals with human whole blood TNFα release. As to the kind of experiment: LPS-stimulation of human whole blood, TNF-α release (ELISA). It counts as cell-based. As to conditions: LPS-stimulated human whole blood, IC50 range; read-out: Inhibitor activity versus human whole blood TNFα release. The protocol: Whole blood was taken by venous puncture using heparinised vacutainers (Becton Dickinson) and diluted in an equal volume of RPMI1640 tissue culture media (Sigma). 100 μl was plated in V-bottomed 96 well tissue culture treated plates. 2 hours after the addition of the inhibitor in 100 μl of RPMI1640 media, the blood was stimulated with LPS (E coli strain 005:B5, Sigma) at a final concentration of 100 ng/ml and incubated at 37° C. in 5% CO2 for 6 hours. TNF-α levels were measured from cell-free supernatants by sandwich ELISA (R&D Systems #QTA00B).

For data set [2], the system named is phosphorylation of MAPKAP-2 in U937 cells. The data set is described as follows: p38 MAP kinase cellular assay: inhibition of phosphorylation of MAPKAP-2 in U937 cells. The settings on record: for IC50: Homo sapiens, U-937; for Ratio cell IC50s to enzyme IC50: U937 cell IC50 / P38 enzyme IC50. Format: cell-based. The protocol:
(§1) U937 or HUT78 cells were plated in RPMI 1640, and were incubated at 37° C., 5% CO2 for 18 hours. 10 mM stocks of compounds were diluted media/0.1% DMSO to give a log or semi-log dilution series. The wells for ‘no treatment’ and ‘anisomycin’ were treated with 0.1% DMSO only. The cells were incubated at 37° C., 5% CO2 for a further 4 hours. Anisomycin was added to all wells except ‘no treatment’ at a final concentration of 10 μM. The cells were incubated at 37° C., 5% CO2 for 30 minutes before harvest. Plates were stood on ice whilst harvesting, and all following steps were carried out at 4° C. The cells were pelleted at 1000 rpm for 10 minutes at 4° C., the media aspirated, and the pellet washed with cold PBS. The pellets were lysed in 120 μl of SDS lysis buffer (62.5 mM Tris, pH 6.8, 2% SDS, 10% glycerol, 50 mM DTT, with protease inhibitors and phosphatase inhibitors added according to the manufacturer's recommendations). After 30 minutes on ice, the samples were sonicated for 5 seconds before centrifugation at 13,000 rpm 4° C. for 10 minutes to remove cell debris. 10 μl of the resulting gel samples were loaded per lane on NOVEX 4-12% Bis-Tris MOPS gels. Membranes from western transfer of gels were blotted with anti-phospho MAPKAP2, anti-phospho HSP27 and anti GAPDH according to the manufacturer's instructions. Signal was visualised using HRP-linked anti-rabbit or anti-mouse antibodies, ECL reagent and ECL film. IC50 values for the various compounds were visualised from the resulting photographic images, using both band-shift and signal intensity.

The subject of data set [3] is phosphorylation of MAPKAP-2 in HUT 78 cells. The data set is described as follows: p38 MAP kinase cellular assay: inhibition of phosphorylation of MAPKAP-2 in HUT 78 cells. It counts as cell-based. As to conditions: for Ratio IC50s in HUT 78 to U937 cells: HUT 78 IC50 / U937 IC50; for IC50: Homo sapiens, HuT78, Table 3, HUT 78 non-monocytic cell line. The protocol:
as §1

The test system of another data set is U937 cells. The data set is described as follows: Cell accumulation of the acid in U937 cells. It counts as cell-based. As to conditions: U937 monocytic versus non-monocytic cell line.
The mark [4] stands for this setting: Table 2, U937 cells, read-out: Inhibition of phosphorylation of MAPKAP-2 in U937 cells (IC50).
Setting [5] is: Table 3, U937 monocyte cell line, read-out: Inhibition of phosphorylation of MAPKAP-2 in U937 cells (IC50, nM) (monocyte cell line).

SMILES strings stand for the structures. Read-outs that look alike come from different tables or passages of the source.

T1 sequence (Q16539 whole entry): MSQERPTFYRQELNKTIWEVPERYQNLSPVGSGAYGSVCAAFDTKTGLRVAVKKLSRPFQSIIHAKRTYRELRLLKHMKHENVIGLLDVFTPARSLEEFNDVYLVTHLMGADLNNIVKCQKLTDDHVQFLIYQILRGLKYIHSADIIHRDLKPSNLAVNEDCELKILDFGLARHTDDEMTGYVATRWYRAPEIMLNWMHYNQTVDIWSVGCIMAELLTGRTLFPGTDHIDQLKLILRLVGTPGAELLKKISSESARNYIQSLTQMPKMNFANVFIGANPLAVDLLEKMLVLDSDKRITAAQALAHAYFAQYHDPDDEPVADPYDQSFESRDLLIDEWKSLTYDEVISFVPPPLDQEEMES

With `CC(C)(NCCc1ccc(-n2c(N)c(C(=O)c3ccc(F)cc3F)ccc2=O)cc1)C(=O)OC1CCCC1` [Example 1, Cyclopentyl N-(2-{4-[6-amino-5-(2,4-difluorobenzoyl)-2-oxopyridin-1(2H)-yl]phenyl}ethyl)-2-methylalaninate], the IC50 on p38 MAP Kinase a was below 100 nM; in the data set on THP-1 TNFα release it was below 100 nM; in data set [1], 100 to 1000 nM; in data set [2] (setting [4]) it was 10 nM; in data set [2] (setting [5]), 10 nM; in data set [3], 1000 nM. In addition, in data set [2], the “Ratio cell IC50s to enzyme IC50” value worked out at 0.2. The “Potency in cells relative to the parent compound lacking the esterase motif” value in data set [2] (U937 cells) stood at 30 times. Moreover, in data set [3], the “Ratio IC50s in HUT 78 to U937 cells” value was determined as 100. Further, the “Accumulation of the acid in cells (in words)” value with U937 cells is given as “only accumulates in the monocytic cell line”.
For `CC(C)(NCCc1cc(F)c(-n2c(N)c(C(=O)c3ccc(F)cc3F)ccc2=O)c(F)c1)C(=O)OC1CCCC1` [Example 2, Cyclopentyl N-(2-{4-[6-amino-5-(2,4-difluorobenzoyl)-2-oxopyridin-1(2H)-yl]-3,5-difluorophenyl}ethyl)-2-methylalaninate], the IC50 (at p38 MAP Kinase a; in the data set on THP-1 TNFα release; in data set [1]) was below 100 nM in each case.
Take `CC(C)(NC(=O)Cc1ccc(-n2c(N)c(C(=O)c3ccc(F)cc3F)ccc2=O)cc1)C(=O)OC1CCCC1` [Example 3, Cyclopentyl N-({4-[6-amino-5-(2,4-difluorobenzoyl)-2-oxopyridin-1(2H)-yl]phenyl}acetyl)-2-methylalaninate]: the IC50 at p38 MAP Kinase a was below 100 nM; in the data set with THP-1 TNFα release it was 100 to 1000 nM; in data set [1], above 1000 nM.
On to `Nc1c(C(=O)c2ccc(F)cc2F)ccc(=O)n1-c1ccc(CCNC2(C(=O)OC3CCCC3)CCCC2)cc1` [Example 4, Cyclopentyl 1-[(2-{4-[6-amino-5-(2,4-difluorobenzoyl)-2-oxopyridin-1(2H)-yl]phenyl}ethyl)amino]cyclopentanecarboxylate], for which the IC50 was below 100 nM on p38 MAP Kinase a, below 100 nM in the data set with THP-1 TNFα release and above 1000 nM in data set [1].
Regarding `CC[C@](C)(NCCc1ccc(-n2c(N)c(C(=O)c3ccc(F)cc3F)ccc2=O)cc1)C(=O)OC1CCCC1` [Example 5, Cyclopentyl N-(2-{4-[6-amino-5-(2,4-difluorobenzoyl)-2-oxopyridin-1(2H)-yl]phenyl}ethyl)-L-isovalinate], the values for the IC50 (at p38 MAP Kinase a; in the data set with THP-1 TNFα release; in data set [1]) were 100 to 1000 nM, below 100 nM and above 1000 nM, respectively.
For `CC[C@](C)(NCCc1ccc(-n2c(N)c(C(=O)c3ccc(F)cc3F)ccc2=O)cc1)C(=O)OC(C)(C)C` [Example 6, tert-butyl N-(2-{4-[6-amino-5-(2,4-difluorobenzoyl)-2-oxopyridin-1(2H)-yl]phenyl}ethyl)-L-isovalinate], the IC50 on p38 MAP Kinase a and in the data set with THP-1 TNFα release was 100 to 1000 nM each time.
As for `CC(C)(NCCc1ccc(-n2c(N)c(C(=O)c3ccc(F)cc3F)ccc2=O)cc1)C(=O)OC1Cc2ccccc2C1` [Example 7, 2,3-dihydro-1H-inden-2-yl N-(2-{4-[6-amino-5-(2,4-difluorobenzoyl)-2-oxopyridin-1(2H)-yl]phenyl}ethyl)-2-methylalaninate], the results for the IC50 (at p38 MAP Kinase a; in the data set with THP-1 TNFα release; in data set [1]) were 100 to 1000 nM, below 100 nM and above 1000 nM, respectively.
Regarding `CC(C)(NCCc1ccc(-n2c(N)c(C(=O)c3ccc(F)cc3F)ccc2=O)cc1)C(=O)OC1CC2CCC1C2` (centres unmarked) [Example 8, bicyclo[2.2.1]hept-2-yl N-(2-{4-[6-amino-5-(2,4-difluorobenzoyl)-2-oxopyridin-1(2H)-yl]phenyl}ethyl)-2-methylalaninate], the IC50 in the data set with THP-1 TNFα release was below 100 nM; in data set [1], above 1000 nM.
On to `CC(C)(NCCCOc1cc(F)c(-n2c(N)c(C(=O)c3ccc(F)cc3F)ccc2=O)c(F)c1)C(=O)OC1CCCC1` [Example 9, Cyclopentyl N-(3-{4-[6-amino-5-(2,4-difluorobenzoyl)-2-oxopyridin-1(2H)-yl]-3,5-difluorophenoxy}propyl)-2-methylalaninate], for which the IC50 at p38 MAP Kinase a was below 100 nM; in the data set on THP-1 TNFα release, below 100 nM; in data set [1] it was 100 to 1000 nM.
`CC(C)(C)OC(=O)C(C)(C)NCCCOc1cc(F)c(-n2c(N)c(C(=O)c3ccc(F)cc3F)ccc2=O)c(F)c1` [Example 10, tert-butyl N-(3-{4-[6-amino-5-(2,4-difluorobenzoyl)-2-oxopyridin-1(2H)-yl]-3,5-difluorophenoxy}propyl)-2-methylalaninate]: the IC50 at p38 MAP Kinase a was below 100 nM; in the data set on THP-1 TNFα release it was below 100 nM; in data set [1], above 1000 nM.
For the compound `CC(C)(NCCc1ccc(-n2c(N)c(C(=O)c3ccc(F)cc3F)ccc2=O)cc1)C(=O)O` [Example 11, N-(2-{4-[6-amino-5-(2,4-difluorobenzoyl)-2-oxopyridin-1(2H)yl]phenyl}ethyl)-2-methylalanine], the IC50 on p38 MAP Kinase a is below 100 nM.
As to `CC(C)(NCCc1cc(F)c(-n2c(N)c(C(=O)c3ccc(F)cc3F)ccc2=O)c(F)c1)C(=O)O` [Example 12, N-(2-{4-[6-amino-5-(2,4-difluorobenzoyl)-2-oxopyridin-1(2H)-yl]-3,5-difluorophenyl}ethyl)-2-methylalanine], the IC50 at p38 MAP Kinase a was below 100 nM.
Regarding `CC(C)(NC(=O)Cc1ccc(-n2c(N)c(C(=O)c3ccc(F)cc3F)ccc2=O)cc1)C(=O)O` [Example 13], the IC50 on p38 MAP Kinase a is 100 to 1000 nM.
For `CC[C@](C)(NCCc1ccc(-n2c(N)c(C(=O)c3ccc(F)cc3F)ccc2=O)cc1)C(=O)O` [Example 14, N-(2-{4-[6-amino-5-(2,4-difluorobenzoyl)-2-oxopyridin-1(2H)-yl]phenyl}ethyl)-L-isovaline], at p38 MAP Kinase a, the IC50 is below 100 nM.
Turning to `Nc1c(C(=O)c2ccc(F)cc2F)ccc(=O)n1-c1ccc(CCNC2(C(=O)O)CCCC2)cc1` [Example 15, 1-[(2-{4-[6-amino-5-(2,4-difluorobenzoyl)-2-oxopyridin-1(2H)-yl]phenyl}ethyl)amino]cyclopentanecarboxylic acid], on p38 MAP Kinase a, the IC50 is 100 to 1000 nM.
Take `CC(C)(NCCCOc1cc(F)c(-n2c(N)c(C(=O)c3ccc(F)cc3F)ccc2=O)c(F)c1)C(=O)O` [Example 16, N-(3-{4-[6-amino-5-(2,4-difluorobenzoyl)-2-oxopyridin-1(2H)-yl]-3,5-difluorophenoxy}propyl)-2-methylalanine]: the IC50 on p38 MAP Kinase a is below 100 nM.
Take `Nc1c(C(=O)c2ccc(F)cc2F)ccc(=O)n1-c1ccccc1` [Parent Compound I, reference compound]: the values for the IC50 in data set [2] (setting [4]), in data set [2] (setting [5]) and in data set [3] were 300 nM, 300 nM and 450 nM, respectively. Moreover, the “Ratio cell IC50s to enzyme IC50” value in data set [2] is recorded as 6. For the same compound, the “Ratio IC50s in HUT 78 to U937 cells” value in data set [3] is given as 1.5; in data set [3] (listed as compound I) it was “equipotent”.
